The subject of data set [1] is sixty human tumour cell lines. The experiment in a line: In vitro cytotoxicity (SRB), mean graph midpoints. In kind it is cell-based. Particulars: 48 h exposure. The protocol: (§1) The compounds were evaluated for in vitro anticancer activity against sixty human tumour cells derived from nine cancer types (leukemia, non-small-cell lung, colon, CNS, melanoma, ovarian, prostate, and breast cancer) as shown in Table 1a. For each compound, dose response curves for each cell line were measured at a minimum of five concentrations at 10 fold dilutions. A protocol of 48 h continuous drug exposure was used and a sulforhodamine B (SRB) protein assay was used to estimate cell viability or growth. The concentration causing 50% cell growth inhibition (GI50), total cell growth inhibition (TGI 0% growth) and 50% cell death (LC50, −50% growth) compared with the control was calculated. The Log10 GI50 (concentration in mol/L causing 50% growth inhibition) values for Cinnamido-pyrrolo[2,1-c][1,4]benzodiazepine (8b) is listed in Table 2.

The subject of a further data set is Prostate cell lines. The experiment in a line: In vitro cytotoxicity (SRB), cancer panel. The settings on record: average of six to eight cell lines, 48 h exposure. It is filed as cell-based, human. The protocol:
as §1

For a further data set, the system named is Renal cell lines. The experiment in a line: In vitro cytotoxicity (SRB), cancer panel. In kind it is cell-based, human. The settings on record: average of six to eight cell lines, 48 h exposure. The protocol:
as §1

A further data set concerns Melanoma cell lines. The experiment in a line: In vitro cytotoxicity (SRB), cancer panel. In kind it is cell-based, human. The settings on record: average of six to eight cell lines, 48 h exposure. The protocol:
as §1

A further data set relates to Colon cell lines. The experiment in a line: In vitro cytotoxicity (SRB), cancer panel. It is filed as cell-based, human. Particulars: average of six to eight cell lines, 48 h exposure. Here is the method:
as §1

In the next data set the test system is Ovarian cell lines. The experiment in a line: In vitro cytotoxicity (SRB), cancer panel. It is filed as cell-based, human. The settings on record: average of six to eight cell lines, 48 h exposure. The protocol: as §1
A further data set deals with Breast cell lines. The experiment in a line: In vitro cytotoxicity (SRB), cancer panel. It is filed as cell-based, human. Particulars: average of six to eight cell lines, 48 h exposure. The protocol:
as §1

Data set [2] deals with Non-small-cell lung cell lines. The experiment in a line: In vitro cytotoxicity (SRB), cancer panel. It is filed as cell-based, human. The settings on record: average of six to eight cell lines, 48 h exposure. The protocol: as §1
A further data set relates to Leukemia cell lines. The experiment in a line: In vitro cytotoxicity (SRB), cancer panel. The settings on record: average of six to eight cell lines, 48 h exposure. In kind it is cell-based, human. The protocol:
as §1

In the case of `COc1cc(/C=C/C(=O)N2CCN(C(=O)c3cc(OC)c(OC)c(OC)c3)CC2)ccc1OCCCOc1cc2c(cc1OC)C(=O)N1CCC[C@H]1C=N2` [8b, 7-methoxy-8-{3-(2-methoxy-4-(E)-3-oxo-3-[4-(3,4,5-trimethoxybenzoyl)piperazino]-1-propenylphenoxy)propoxy}-(11aS)-2,3,5,11^a-tetrahydro-5H-pyrrolo[2,1-c][1,4]benzo-diazepine-5-one], the “Log10 GI50 mean graph midpoint (MG_MID)” value in [1] is given as −6.48 mol/L. In addition, the “Log10 LC50 mean graph midpoint (MG_MID)” value in data set [1] was −4.5. Moreover, the “Log10 TGI mean graph midpoint (MG_MID)” value in data set [1] is −5.59. Also, the “Log10 GI50” value is −6.44 mol/L in the data set on Prostate cell lines; −6.20 mol/L in the data set with Renal cell lines; −6.64 mol/L with Melanoma cell lines; −6.43 mol/L in the data set with Colon cell lines; −6.36 mol/L in the data set on Ovarian cell lines; −6.51 mol/L with Breast cell lines. Further, the “Log10 GI50” value was −6.31 mol/L in data set [2] and −6.77 mol/L in the data set with Leukemia cell lines.
